# Experiment: Phase 1b safety and tolerability of HBI-8000 combined with nivolumab (DLTs, TEAEs)
# Type: in vivo
# Procedure: The present example, was a Phase Ib/2 open-label dose finding study for HBI-8000 (also referred to in the art as “chidamide” or “tucidinostat” and also referred to herein as a compound of formula I) in combination with nivolumab in patients with advanced solid tumors, including melanoma, RCC (renal cell carcinoma), and NSCLC (non-small cell lung cancer). This study was conducted in accordance with Good Clinical Practice guidelines and the Declaration of Helsinki and with assurance/approval from the US Department of Health and Human Services; the protocol was approved by the institutional review boards or ethics committees of all participating sites. All patients provided written informed consent to participate before enrollment. […]
# HBI-8000 at three dose levels (20 mg, 30 mg, and 40 mg) given orally twice a week (BIW) were evaluated. Doses were taken approximate 30 minutes after a meal. The starting dose (20 mg) was selected based on pharmacokinetic profiles established for monotherapy in Japanese patients with T-cell lymphoma.
# The decision to escalate the dose was based on the conventional 3+3 design and observed incidences of dose-limiting toxicities (DLTs). Each treatment cycle was defined as 28 days. […] Subjects experiencing DLT within the first two weeks after having received 100% of assigned dose of HBI-8000 are also evaluable for DLT. Unacceptable toxicities were defined as grade 3 or higher non-hematologic and hematologic toxicities with clinical complications. Unacceptable toxicities observed over the first 28 days following HBI-8000 administration were considered as DLTs. […] HBI-8000 administration continued until disease progression or unacceptable toxicity was observed. The efficacy of the combination was further evaluated in an expanded cohort of selected patient populations at RP2D based on an objective response rate according to Response Evaluation Criteria in Solid Tumors (RECIST) version 1.1 criteria, progression-free survival, and duration of responses.
# Safety evaluations included physical examinations, vital signs, ECGs, ECOG performance status, and laboratory tests.
# Statistical analyses of safety, tolerability, and anti-tumor activity were primarily descriptive in nature. Toxicities were tabulated by type and grade. The safety population included all patients who received ≥1 dose of HBI-8000 and nivolumab. Continuous variables were summarized using descriptive statistics and categorical variables were summarized with number and percentage at each category. Pharmacokinetic parameters were derived using noncompartmental methods with Phoenix® WinNonlin® Version 6.4 (Certara, L. P., Princeton, NJ, USA).
# [1] = 20 mg HBI-8000 BIW + nivolumab, N = 3
# [2] = 30 mg HBI-8000 BIW + nivolumab, N = 7
# [3] = 40 mg HBI-8000 BIW + nivolumab, N = 7
smiles,measurement,setting,value
"Nc1cc(F)ccc1NC(=O)c1ccc(CNC(=O)/C=C/c2cccnc2)cc1 [HBI-8000, N-(2-amino-4-fluorophenyl)-4-[[[(2E)-1-oxo-3-(3-pyridinyl)-2-propen-1-yl]amino]methyl]benzamide]","Alanine aminotransferase increased, All, G < 3",[1],1 (33) n (%)
same,"Alanine aminotransferase increased, Related Both, Any G",[1],1 (33) n (%)
same,"Any SAE, number of subjects",[1],1 n
same,"Any TEAE, number of subjects",[1],3 n
same,"Aspartate aminotransferase increased, All, G < 3",[1],1 (33) n (%)
same,"Aspartate aminotransferase increased, Related Both, Any G",[1],1 (33) n (%)
same,"Decreased appetite, All, G < 3",[1],1 (33) n (%)
same,"Dehydration, All, G < 3",[1],1 (33) n (%)
same,"Diarrhoea, All, G < 3",[1],2 (67) n (%)
same,"Diarrhoea, Related Both, Any G",[1],1 (33) n (%)
same,"Dizziness, All, G < 3",[1],1 (33) n (%)
same,"Dyspnoea, All, G < 3",[1],2 (67) n (%)
same,"Dyspnoea, Related Both, Any G",[1],1 (33) n (%)
same,"Fatigue, All, G < 3",[1],2 (67) n (%)
same,"Fatigue, All, G ≥ 3",[1],1 (33) n (%)
same,"Fatigue, Related Both, Any G",[1],1 (33) n (%)
same,"Headache, All, G < 3",[1],1 (33) n (%)
same,"Hypocalcaemia, All, G < 3",[1],1 (33) n (%)
same,"Hypocalcaemia, All, G ≥ 3",[1],1 (33) n (%)
same,"Hypokalaemia, All, G ≥ 3",[1],1 (33) n (%)
same,"Nausea, All, G < 3",[1],2 (67) n (%)
same,"Nausea, All, G ≥ 3",[1],1 (33) n (%)
same,"Oedema peripheral, All, G < 3",[1],1 (33) n (%)
same,"SAE related to HBI-8000 & Nivolumab, number of subjects",[1],0 n
same,"SAE related to HBI-8000 alone, number of subjects",[1],0 n
same,"TEAE related to HBI-8000 & Nivolumab, number of subjects",[1],3 n
same,"TEAE related to HBI-8000 alone, number of subjects",[1],0 n
same,"TEAE resulting in discontinuation of HBI-8000 alone, number of subjects",[1],2 n
same,"TEAE resulting in discontinuation of both HBI-8000 and Nivo, number of subjects",[1],0 n
same,"Vomiting, All, G < 3",[1],1 (33) n (%)
same,"Weight decreased, All, G < 3",[1],1 (33) n (%)
same,"Alanine aminotransferase increased, All, G < 3",[2],2 (29) n (%)
same,"Alanine aminotransferase increased, Related Both, Any G",[2],2 (29) n (%)
same,"Anaemia, All, G < 3",[2],4 (57) n (%)
same,"Anaemia, All, G ≥ 3",[2],1 (14) n (%)
same,"Anaemia, Related Both, Any G",[2],3 (43) n (%)
same,"Any SAE, number of subjects",[2],6 n
same,"Any TEAE, number of subjects",[2],7 n
same,"Aspartate aminotransferase increased, All, G < 3",[2],2 (29) n (%)
same,"Aspartate aminotransferase increased, Related Both, Any G",[2],2 (29) n (%)
same,"Atrial fibrillation, All, G < 3",[2],1 (14) n (%)
same,"Back pain, All, G < 3",[2],4 (57) n (%)
same,"Back pain, Related Both, Any G",[2],1 (14) n (%)
same,"Contusion, All, G < 3",[2],1 (14) n (%)
same,"Contusion, Related Both, Any G",[2],1 (14) n (%)
same,"Decreased appetite, All, G < 3",[2],4 (57) n (%)
same,"Decreased appetite, All, G ≥ 3",[2],1 (14) n (%)
same,"Decreased appetite, Related Both, Any G",[2],3 (43) n (%)
same,"Decreased appetite, Related HBI, Any G",[2],1 (14) n (%)
same,"Dehydration, All, G < 3",[2],2 (29) n (%)
same,"Dehydration, All, G ≥ 3",[2],1 (14) n (%)
same,"Dehydration, Related Both, Any G",[2],1 (14) n (%)
same,"Diarrhoea, All, G < 3",[2],3 (43) n (%)
same,"Diarrhoea, Related Both, Any G",[2],3 (43) n (%)
same,"Dizziness, All, G < 3",[2],2 (29) n (%)
same,"Dizziness, Related Both, Any G",[2],1 (14) n (%)
same,"Dizziness, Related HBI, Any G",[2],1 (14) n (%)
same,"Dyspnoea, All, G < 3",[2],4 (57) n (%)
same,"Dyspnoea, Related Both, Any G",[2],1 (14) n (%)
same,"Fall, All, G < 3",[2],2 (29) n (%)
same,"Fall, Related Both, Any G",[2],1 (14) n (%)
same,"Fatigue, All, G < 3",[2],5 (71) n (%)
same,"Fatigue, All, G ≥ 3",[2],1 (14) n (%)
same,"Fatigue, Related Both, Any G",[2],4 (57) n (%)
same,"Headache, All, G < 3",[2],2 (29) n (%)
same,"Headache, Related Both, Any G",[2],1 (14) n (%)
same,"Hypocalcaemia, All, G < 3",[2],3 (43) n (%)
same,"Hypocalcaemia, Related Both, Any G",[2],2 (29) n (%)
same,"Hypokalaemia, All, G < 3",[2],2 (29) n (%)
same,"Hypokalaemia, All, G ≥ 3",[2],1 (14) n (%)
same,"Hypokalaemia, Related Both, Any G",[2],1 (14) n (%)
same,"Hypophosphataemia, All, G < 3",[2],3 (43) n (%)
same,"Hypophosphataemia, All, G ≥ 3",[2],3 (43) n (%)
same,"Hypophosphataemia, Related Both, Any G",[2],2 (29) n (%)
same,"Hypophosphataemia, Related HBI, Any G",[2],1 (14) n (%)
same,"Hypotension, All, G < 3",[2],1 (14) n (%)
same,"Hypotension, All, G ≥ 3",[2],2 (29) n (%)
same,"Hypotension, Related Both, Any G",[2],1 (14) n (%)
same,"Hypoxia, All, G < 3",[2],1 (14) n (%)
same,"Hypoxia, All, G ≥ 3",[2],3 (43) n (%)
same,"Hypoxia, Related Both, Any G",[2],1 (14) n (%)
same,"Lipase increased, All, G < 3",[2],3 (43) n (%)
same,"Lipase increased, All, G ≥ 3",[2],4 (57) n (%)
same,"Lipase increased, Related Both, Any G",[2],2 (29) n (%)
same,"Lymphocyte count decreased, All, G < 3",[2],3 (43) n (%)
same,"Lymphocyte count decreased, All, G ≥ 3",[2],3 (43) n (%)
same,"Lymphocyte count decreased, Related Both, Any G",[2],2 (29) n (%)
same,"Nausea, All, G < 3",[2],3 (43) n (%)
same,"Nausea, Related HBI, Any G",[2],1 (14) n (%)
same,"Neutrophil count decreased, All, G < 3",[2],2 (29) n (%)
same,"Neutrophil count decreased, All, G ≥ 3",[2],1 (14) n (%)
same,"Neutrophil count decreased, Related Both, Any G",[2],1 (14) n (%)
same,"Neutrophil count decreased, Related HBI, Any G",[2],1 (14) n (%)
same,"Non-cardiac chest pain, All, G < 3",[2],2 (29) n (%)
same,"Oedema peripheral, All, G < 3",[2],4 (57) n (%)
same,"Oedema peripheral, All, G ≥ 3",[2],1 (14) n (%)
same,"Oedema peripheral, Related Both, Any G",[2],1 (14) n (%)
same,"Oedema peripheral, Related HBI, Any G",[2],1 (14) n (%)
same,"Platelet count decreased, All, G < 3",[2],4 (57) n (%)
same,"Platelet count decreased, Related Both, Any G",[2],3 (43) n (%)
same,"Platelet count decreased, Related HBI, Any G",[2],1 (14) n (%)
same,"Pleural effusion, All, G < 3",[2],3 (43) n (%)
same,"Pleural effusion, Related Both, Any G",[2],1 (14) n (%)
same,"SAE related to HBI-8000 & Nivolumab, number of subjects",[2],0 n
same,"SAE related to HBI-8000 alone, number of subjects",[2],0 n
same,"TEAE related to HBI-8000 & Nivolumab, number of subjects",[2],5 n
same,"TEAE related to HBI-8000 alone, number of subjects",[2],4 n
same,"TEAE resulting in discontinuation of HBI-8000 alone, number of subjects",[2],1 n
same,"TEAE resulting in discontinuation of both HBI-8000 and Nivo, number of subjects",[2],1 n
same,"Vomiting, All, G < 3",[2],1 (14) n (%)
same,"Vomiting, Related Both, Any G",[2],1 (14) n (%)
same,"Weight decreased, All, G < 3",[2],5 (71) n (%)
same,"Weight decreased, Related Both, Any G",[2],3 (43) n (%)
same,"White blood cell count decreased, All, G < 3",[2],2 (29) n (%)
same,"White blood cell count decreased, All, G ≥ 3",[2],1 (14) n (%)
same,"White blood cell count decreased, Related Both, Any G",[2],2 (29) n (%)
same,"White blood cell count decreased, Related HBI, Any G",[2],2 (29) n (%)
same,"Alanine aminotransferase increased, All, G < 3",[3],1 (14) n (%)
same,"Alanine aminotransferase increased, Related Both, Any G",[3],1 (14) n (%)
same,"Anaemia, All, G < 3",[3],4 (57) n (%)
same,"Anaemia, All, G ≥ 3",[3],1 (14) n (%)
same,"Anaemia, Related Both, Any G",[3],1 (14) n (%)
same,"Anaemia, Related HBI, Any G",[3],2 (29) n (%)

# Source: US20240252474A1, “METHODS AND COMPOSITIONS COMPRISING A CARDIO-TOLERATED HDAC INHIBITOR” (HUYABIO International, LLC, priority 2023, published 2024)
